The values below come from patent publication US9862713B2, “Substituted bicyclic heteroaryl compounds as RXR agonists” (CONNEXIOS LIFE SCIENCES PVT. LTD., priority 2014, dated 2018).

One assay relates to MIA PaCa-2 cells. Put plainly: Cell death (DNA fragmentation) in MIA PaCa-2 cells. In kind it is cell-based. How it is done: Caspase-3 activity was measured using its ability to cleave its substrate (Ac-DEVD-R110). Increased Caspase-3 activity would lead to higher release of fluorescent R110 which was measured at 485 nm excitation and 530 nm emission. Activity of caspase-3 (as nano-moles of R110 released) was normalized to total cellular protein. […] Cell death was measured by increased levels of DNA fragments as per manufacturer's protocol (Roche) and was normalized to total cellular DNA. Data are represented as % of control.

Assay [1] concerns HL-60 promyelocytic leukemia cell line. Put plainly: HL-60 differentiation (NBT reduction). The note with it: 72 h culture. The assay is classed as cell-based. How it is done: Progression of promyelocytic leukemia can be abrogated by their differentiation. […] In order to estimate the differentiating ability of compound-40, HL-60 promyelocytic leukemia cell line was used as an in vitro model of the disease. HL-60 cells were cultured for 72 h as either control or under treatment as mentioned. After 72 h of culture, cells were exposed to nitro blue tetrazolium (NBT) solution containing phorbol myristate acetate (PMA) for 1 h at 37° C. Differentiated cells have increased oxidative burst potential which reduces NBT. Levels of reduced NBT were measured at 540 nm absorption.

Another assay relates to DIO mice. As to the kind of experiment: Compound 40 with exercise on metabolic profile in DIO mice; exercise endurance (tread mill) test. In kind it is in vivo, male C57BL/6J mice. Here is the method:
Exercise endurance test or tread mill test (TMT): Exercise endurance test was accomplished on a motor treadmill at a low to moderate intensity of 5-20 cm/sec as maximal running speed with an intensity of 0.2 mA shock and one degree of inclination. The animals were subjected for TMT till exhaustion and different observations like distance traveled (cm), time spent on shock zone (sec), number of shocks, total time (min) were measured for all the mice in different groups.
Six week old male C57BL/6J mice were selected, acclimatized for a period of 1 week, Animals were assigned to either chow (10% kcal from fat) or high fat diet (HFD) (D12492; 60% kcal from fat), Research Diets, Inc., New Jersey, USA. After 11 weeks of the diet intervention, the HFD fed animals were assigned to specific treatment groups based upon body weight, glucose AUC during OGTT, fasting and fed blood glucose and fasting TG. The lean control mice (n=10) were fed with normal chow diet while the treatment group (n=10) and HFD Control (n=10), with and without exercise training, with high fat diet throughout the experimental period. Treatment group received Compound 40 with and without exercise training, at a dose of 10 mg/kg b.wt, once daily, po as suspension in 1% MC (methyl cellulose) as vehicle. Lean control and HFD controls animals were administered with vehicle. Exercise training was accomplished on a motor treadmill at a low to moderate intensity of 5-20 cm/sec as maximal running speed with an intensity of 0.2 mA shock and one degree of inclination. The animals were adapted to this procedure 5 days a week and different observations like distance traveled (cm), time spent on shock zone (sec), number of shocks, total time (min) will be measured for all the mice in different groups. Weekly body weight & daily feed consumption was recorded. The blood collected from tail vein was subjected for estimation of glucose and TG. OGTT was performed in 6 h fasted mice with 2 g/kg, of oral glucose challenge after 4 and 8 weeks of treatment. Then animals were euthanized and necropsied, the liver was excised immediately, weighed and taken to estimate liver triglyceride (TG). Different adipose depots were separated and weighed.

In a further assay the test system is ob/ob mice. Put plainly: Effect of RXR agonist on ob/ob mice. The settings on record: 3, 10 and 30 mg/kg, BID, po; 4 weeks. In kind it is in vivo. How it is done: The male ob/ob and lean mice were procured from Harlon laboratories, acclimatized for a week, were fed a standard laboratory diet. The lean control and the ob/ob mice were 16 weeks old at the start of the study and were randomized to either vehicle or drug (Compound 40, 3, 10 and 30 mg/kg, BID, po) treatment groups by body weight, fed glucose and glucose AUC during an oral glucose tolerance test. The treatment was continued for 4 weeks. Fed glucose and fast triglycerides (tail snip) were monitored weekly. At the end of week 4 of the treatment, Animals were sacrificed […] terminal measurement of fasting glycerol, free fatty acid, cholesterol, LDL levels.

Assay [2] concerns mouse neuronal cells (N2A cells). Put plainly: Cholesterol-treated neuronal cells (N2A), in vitro data for Alzheimer's disease. The assay is classed as cell-based. The settings on record: 320 uM cholesterol. How it is done:
In order to study the impact of Compound 40 on Alzheimer's Disease, cultured mouse neuronal cells (N2A cells) were treated with 320 uM cholesterol alone or with test molecule for 24 h. Cholesterol was removed and treatment is continued for 24 h. Cholesterol content in the cells was measured by biochemical methods, normalized to total protein. For gene expression studies, cells were treated with 320 uM cholesterol alone or with test molecule for 48 h. RNA was made and later converted to cDNA and the gene expression was measured. […] These cellular events lead to reduced plaque formation and improvement in the health of neuronal cells.

The next assay deals with Male Wistar rats. As to the kind of experiment: Isoprenaline induced cardiac hypertrophy in rats. The settings on record: 10 mg/kg, p.o., q.d., 11 weeks. In kind it is in vivo. How it is done: Male Wistar rats of fourteen weeks age were housed under controlled temperature 22±3° C., relative humidity 50-70%, 12 hour light and 12 hour dark cycle with artificial fluorescent tubes. Animals were acclimatized for seven days. On eight day animals were randomized based on their body weights and allotted into nine animals/group. Different groups into which animals allotted were G1: Vehicle control, G2: Isoprenaline control (5 mg/kg, s.c. twice a week) and G3: Isoprenaline (5 mg/kg, s.c. twice a week)+Compound 40 (10 mg/kg, p.o., q.d.). Treatment with Compound 40 (10 mpk) for G3 group was started one week prior to isoprenaline administration and both the treatments were continued for eleven weeks. The animals were monitored for daily feed consumption and weekly body weight throughout the study. At the end of treatment period (Week 11) five animals from each group were subjected to Cardiovascular hemodynamic assessment by Millar catheter using MPVS Ultra control interface connected to AD power lab, AD instruments. Different parameters measured were heart rate, stroke work, stroke volume, cardiac output, left ventricular systolic pressure, left ventricular diastolic pressure, left ventricular diastolic volume Immediately after hemodynamic estimation terminal blood from all the animals were collected followed by the collection of hearts. All the separated serum samples were used for estimation of several cardiac markers like ANP, BNP, CRP, LDH, CKN, CKMB and SGOT. Collected hearts were examined for histopathological changes and gene expression studies. All the numerical output was expressed as Mean±SEM, one way ANOVA followed by Dunnets' test using Graph pad prism software.

As to `CC1(C)CCC(C)(C)c2sc(N(CC3CC3)c3ccc(C(=O)O)cn3)nc21` [Compound 40, 6-[(Cyclopropylmethyl) (4,4,7,7-tetramethyl-4,5,6,7-tetrahydro-1,3-benzothiazol-2-yl)amino]pyridine-3-carboxylic acid], the “cell death (DNA fragmentation)” value with MIA PaCa-2 cells is reported as “increased cell death”. Moreover, in assay [1] (NBT reduction at 540 nm), the HL-60 cells differentiation result is recorded as “significantly increased”. In addition, the “HL-60 differentiation in combination with ATRA” value in assay [1] (together with ATRA) was “additive effect with ATRA”. For the same molecule, in the assay on DIO mice (10 mg/kg b.wt, once daily, po), the Body weight result is listed as “improvement was also observed”, the OGTT levels result is “significant improvement”, the “fasting TG levels” value was “improvement was also observed” and the fasting glucose result is “significant improvement”. The muscle endurance result in the assay with DIO mice (DIO mice, tread mill test) is “significantly improves muscle endurance”. Further, in the assay with ob/ob mice, the LDL-c entry is “decreasing LDL-c”; the “prandial hyperglycemia (fed glucose)” value is “both an early onset and sustained control of prandial hyperglycemia”; the total cholesterol entry is recorded as “significantly decreased total cholesterol”. In assay [2], the “apoptosis (Caspase activity)” value is recorded as “decreased apoptosis”, the “cholesterol accumulation (cholesterol content in the cells)” value is “reduced cholesterol accumulation” and the “oxidative stress (ROS levels)” value was “reduced oxidative stress”. Moreover, the “cholesterol efflux (ABCA1 and ABCG1 expression)” value in assay [2] (48 h) is given as “increased the cholesterol efflux”. Also, in the assay on Male Wistar rats (isoprenaline 5 mg/kg, s.c. twice a week), the absolute heart weight result is recorded as “substantial reduction”. In addition, in the assay with Male Wistar rats (isoprenaline), the “Stroke volume (SV)” value is recorded as “significant improvement”, the “Stroke work (SW)” value is on record as “significant improvement”, the cardiac output result was “improved” and the ejection fraction result is “improved”. Also, in the assay on Male Wistar rats (isoprenaline), the heart rate entry is reported as “improved”, the “thickness of the septum” value was “significant reduction”, the “thickness of the ventricular wall” value is on record as “significant reduction” and the ventricular refilling entry is “improvement in ventricular refilling”.
